# Results published in patent US8703811B2, “Small molecule inhibitors of Plasmodium falciparum dihydroorotate dehydrogenase” (Genzyme Corporation, priority 2008, dated 2014).
# pEC50, pIC50: −log10 of the molar value. Like-named read-outs stand apart in the source and are kept apart here.
# Columns and labels:
# Log D measurement = type: physicochemical
# Text: Many standard techniques are known in the art to establish the distribution coefficient of a compound between two particular solvents. The following description is one such technique that could be used to determine the distribution coefficient: The shake-flask method, which consists of dissolving some of the compound in a volume of octanol and water, then physically shaking the mixture and allowing the two solvents to fully separate. The concentration of the compound in each solvent is then measured. The most common method of measuring the distribution of the solute is by HPLC or UV/Vis spectroscopic techniques.
# P. falciparum 3D7 = experiment: Inhibition of in vitro P. falciparum culture, [3H]-hypoxanthine uptake, 3D7; type: cell-based; settings: for pEC50: read-out: 3D7 EC50; for pIC50: read-out: 3D7 IC50
# Method in brief: (§1)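 Parasite growth inhibition measured as relative reduction of [3H]-hypoxanthine uptake in in vitro cultures. Values from non-linear regression fit, using relative growth velocity in place of product-formation rate.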
# P. falciparum Dd2 = experiment: Inhibition of in vitro P. falciparum culture, [3H]-hypoxanthine uptake, Dd2; type: cell-based; settings: for pEC50: read-out: Dd2 EC50; for pIC50: read-out: Dd2 IC50
# Method in brief: as §1
# hsDHODH = hsDHODH (Homo sapiens (Human), UniProt Q02127); experiment: DCIP assay, hsDHODH; type: biochemical
# [1] = Renal Proximal Tubule Epithelial Cell Toxicity Screen; type: cell-based
# Method: The Renal Proximal Tubule Epithelial Cell Toxicity Screen is designed to determine whether compound mixtures, breakouts or single compounds are toxic to normal renal epithelial cells. […] Basically, the screen consists of plating renal epithelial cells, exposing them to the desired compound(s) for 4 days and measuring cell viability using the Alamar Blue reagent.
# Harvested Kidney Epithelial cells were diluted in REGM to 1.5×10^4 cells/mL. […] NOTE: One plate, the T=0 plate required that 20-30 wells be seeded, and all the other plates had 96 wells seeded. Plates were incubated in 37° C./5% CO2 incubator for 24 hours.
# (§2) Alamar Blue solution (25 μL/well) was added to the T=0 plate and mixed. The plate was incubated in 37° C./5% CO2 incubator for 4 hours, mixed and then the fluorescence was measured. 10% Tween 20 stock (10 μL) was added into rows A-D in column 1 (positive control). DMSO (0.5 μL) was added into column 2 (negative control). Compounds were placed into designated wells for desired testing as follows:
# Plates were mixed on the shaker, and then incubated in 37° C./5% CO2 incubator for 96 hours. Day 6:
# Alamar Blue solution (25 μL/well) was added to the plates containing the compounds and mixed. Plates were incubated in 37° C./5% CO2 incubator for 4 hours, mixed and the fluorescence was measured.
# [2] = Normal Human Dermal Fibroblast Toxicity Screen; type: cell-based; settings: human, normal human dermal fibroblasts; four days exposure, Alamar Blue; read-out: Dermal Fibroblast LC50
# Method: The Normal Human Dermal Fibroblast Toxicity Screen Protocol is designed to determine whether compound mixtures, breakouts or single compounds are toxic to normal human dermal fibroblasts. The screen involves plating the dermal fibroblasts and then exposing them to the compounds for four days, then cell viability is measured using Alamar Blue reagent.
# Harvested Dermal Fibroblast cells were diluted in Growth Media to 0.25 to 0.3×10^5 cells/mL. […] NOTE: One plate, the T=0 plate required that 20-30 wells be seeded and all the other plates had 96 wells seeded. Plates were incubated in 37° C./5% CO2 incubator for 24 hours.
# as §2, with “the plate was agitated.” for “mixed.”, “plate” for “plate was incubated”, “incubator was incubated” for “incubator”, “3” for “4”, “agitated the” for “mixed”, “and” for “and then”
# Plates were mixed on the shaker, then incubated in 37° C./5% CO2 incubator for 96 hours.
# Alamar Blue solution (25 μL/well) was added to the plates containing the compounds, and the plates were agitated. The plates were incubated in 37° C./5% CO2 incubator for 3 hours, agitated and then the fluorescence was measured.
# [3] = Table 3, [3H]-hypoxanthine uptake
# [4] = Table 2b, read-out: Hu (human DHODH) IC50
# [5] = Table 3, DCIP assay, 20 nM hsDHODH, read-out: hsDHODH IC50
# [6] = Plasmodium falciparum, 3D7, Table 2b
# [7] = Plasmodium falciparum, 3D7, Table 3, [3H]-hypoxanthine uptake
# [8] = Plasmodium falciparum, DD2, Table 2b
# [9] = Plasmodium falciparum, DD2, Table 3, [3H]-hypoxanthine uptake
# Sequence of hsDHODH (Q02127 29-395 limits assumed): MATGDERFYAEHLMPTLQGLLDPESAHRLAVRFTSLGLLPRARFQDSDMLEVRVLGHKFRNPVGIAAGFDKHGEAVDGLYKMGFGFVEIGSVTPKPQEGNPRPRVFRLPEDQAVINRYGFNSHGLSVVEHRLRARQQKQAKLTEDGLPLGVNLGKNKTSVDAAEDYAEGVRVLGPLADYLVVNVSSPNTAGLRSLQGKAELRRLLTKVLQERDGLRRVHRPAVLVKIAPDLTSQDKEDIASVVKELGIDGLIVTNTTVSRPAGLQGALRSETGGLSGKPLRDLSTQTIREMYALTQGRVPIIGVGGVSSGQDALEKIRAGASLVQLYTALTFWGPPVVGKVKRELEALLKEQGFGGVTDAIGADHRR
Compound,logD (Log D measurement),pEC50 (P. falciparum 3D7; Table 2b),pIC50 (P. falciparum 3D7; [3]),pEC50 (P. falciparum Dd2; Table 2b),pIC50 (P. falciparum Dd2; [3]),pIC50 (hsDHODH; [4]),pIC50 (hsDHODH; [5]),CC50 at 96 h [1] [nM],"logD (Log D measurement; octanol/water, read-out: LogD)",CC50 at 96 h [2] [nM],pEC50 (P. falciparum 3D7; [6]),pIC50 (P. falciparum 3D7; [7]),pEC50 (P. falciparum Dd2; [8]),pIC50 (P. falciparum Dd2; [9]),"pIC50 (P. falciparum 3D7; Plasmodium falciparum, 3D7, Erythrocyte, [3H]-hypoxanthine uptake by parasite infected erythrocytes)","pIC50 (P. falciparum Dd2; Plasmodium falciparum, DD2, Erythrocyte, [3H]-hypoxanthine uptake by parasite infected erythrocytes)","pIC50 (hsDHODH; DCIP assay, 200 μM L-DHO, 18 μM CoQD, 100 μM DCIP, 20 nM enzyme, read-out: hsDHODH IC50)"
5-(1H-indol-1-yl)-N-propylthiophene-2-carboxamide [Compound 7],>3.5,6.15,6.15,5.99,6.64,< 4.52,< 4.52,,,,,,,,,,
"CCCNC(=O)c1ccc(-n2c(C)nc3ccccc32)s1 [Compound 12, 5-(2-methyl-1H-benzo[d]imidazol-1-yl)-N-propylthiophene-2-carboxamide]",,,,,,< 4.52,< 4.52,> 62000,3.4,> 62000,6.20,6.20,,,,,
"CCCNC(=O)c1ccc(-n2cnc3ccccc32)s1 [Compound 11, 5-(1H-benzo[d]imidazol-1-yl)-N-propylthiophene-2-carboxamide]",,,,,5.90,< 4.52,< 4.52,> 62000,3.3,> 62000,6.33,6.33,5.96,6.02,,,
"CCCNC(=O)c1ccc(-n2c(C)cc3ccccc32)s1 [Compound 1, 5-(2-methyl-1H-indol-1-yl)-N-propylthiophene-2-carboxamide]",,,,,,< 4.52,< 4.52,> 62000,> 3.5,> 62000,6.41,6.41,6.31,6.60,6.33,6.54,< 4.52
